Columns and labels:
rat hepatocytes [1] = experiment: survival of rat hepatocytes after exposure to oxyradical (Table I); type: cell-based; conditions: for Mean Survival Time of 10^5 Rat Hepatocytes After Exposure to Oxyradical: control about 6.5 minutes
Source text: In further studies, culturing the rat hepatocytes and testing for oxyradical damage using purpurogallin and Trolox additives according to the procedure of Wu et al. op. cit., and Clin. Chem. 36: 1172-1173 (abstract), 1990, the results given below in Table I were obtained.

[2] = tested on: Rat kidney mesangial cells; experiment: survival of rat kidney mesangial cells exposed to XOD and hypoxanthine (Table III); type: cell-based; conditions: for Mean Time Survival of Cells Exposed to XOD and Hypoxanthine: XOD 66.7 IU/L, hypoxanthine 0.5 mM, control 5.7
Source text: Rat kidney mesangial cells were isolated and tested with purpurogallin versus Trolox over the same range of concentrations, for protection against oxyradical damage using methods and procedures described by Wu et al., op cit. […]

human erythrocytes = experiment: protection of human erythrocytes from AAPH-induced lysis; type: cell-based; conditions: for IC50: Homo sapiens, Erythrocyte, 3 h, 100 mM AAPH, 10% RBC suspension, 37° C., 180 min, read-out: concentration of the agent that elicits 50% inhibition of cells lysis (IC50)
Description: In this example, experiments were conducted with human erythrocytes, subjecting them to free radicals generated by thermal activation of AAPH in a reaction mixture in the absence and in the presence of various amounts of purpurogallin or Trolox, to determine the cytoprotective capability of purpurogallin under these conditions.
Freshly obtained human erythrocytes were washed at least three times in saline with centrifugation at 1500 g×10 min. Then, a 20% suspension of RBC was prepared in the phosphate buffered saline (pH 7.4). (Miki et al., Arch. Biochem. Biophys. 258: 373-380, 1987).
The free radicals were generated by thermal activation of the azo-initiator2,2'-azo-bis(2-amidinopropane)HCl(AAPH). The reaction mixture (0.5 mL volumes) contained 10% red blood cell (RBC) suspension, AAPH (100 mM final level) and various levels of purpurogallin in 10 mM phosphate buffered saline. The above mixture was incubated at 37° C. for 180 min, while shaking gently. The, 35 μl aliquot of reaction mixture was taken out, diluted in 1.5 mL of saline, and centrifuged (1500 g for 10 min). The absorption of the supernatant at […] was read against a PBA blank. Similarly, the reaction mixture was treated with 1.5 mL of distilled water with sonication for 2 min to obtain complete hemolysis. Percent hemolysis was calculated according to Miki et al. (op. cit.).

[3] = tested on: Human ventricular myocytes; experiment: survival of ventricular myocytes after exposure to oxyradical (Table II); type: cell-based; conditions: for Mean survival time of human ventricular myocytes after exposure to oxyradical: control 2 minutes, mean of 5-7 replicates
Source text: Human ventricular myocytes were isolated and tested with purpurogallin and Trolox for protection against oxyradical damage using the methods and procedures described by Wu et al., op cit.
Each result reported in Table II is the mean of 5-7 closely agreeing replicates.

water solubility = type: physicochemical; conditions: 4 mM prepared in PBS with brief sonication, pH adjusted to 7.40±0.05
heart = heart ischemia-reperfusion in vivo; set-up: species or system New Zealand white rabbits
Description: In this example, the cytoprotective effect of purpurogallin in vivo, in heart ischemia-reperfusion in rabbits was examined.
New Zealand white rabbits (3.0-3.5 kg by weight) were anaesthetized with intramuscular injection of Ketamine (35 mg/kg) and Atravet (0.4 mg/kg), and intravenous injection of atropine (0.1 mg/kg).
After shaving the frontal area of the animal, anaesthesia was maintained by performing tracheotomy and ventilating the animal with positive pressure respiration using a Harvard small animal respirator and a gas mixture of 2.5% ethrane (or enflurane) in oxygen. A midline sternotomy was done. The pericardium was opened and the heart was exposed. The main branch of the anterior ventricular coronary artery that supplies blood to a great part of the left ventricle and apex in rabbits (also referred to as the left circumflex coronary artery) was temporarily ligated with a 5-0 silk thread for 1 hour at the site between 1/2 to 2/3 from apex to the atrioventricular groove. Approximately 1 minute before releasing the occlusion, a 30-ml bolus of 1 mM test solution was injected through the right external jugular vein. In control animals, a 30-mL bolus of normal saline was given instead of the test solution. […] After this period, the heart was harvested, stained for enzyme activity with a tetrazolium dye and the areas of necrosis determined by planimetry. […]

rat hepatocytes [4] = experiment: time to necrose rat hepatocytes exposed to xanthine oxidase/hypoxanthine oxyradicals (FIG. 2); type: cell-based, rat (male Sprague-Dawley); conditions: 3 mM; XOD 66.7 IU/L, 2 mM hypoxanthine; control approximately 6 min
Description: In this example, experiments were conducted with rat hepatocytes, subjecting them to the action of free radicals in the presence and absence of purpurogallin, at various levels.
Hepatocytes were prepared from male Sprague-Dawley rats (400 g-450 g) according the method of Princen et al. J. Clin. Invest. 78: 1064-1071 (1986), except that the perfusion of the liver was done first with 250 mL of 0.5 mM EGTA and 10 MM HEPES buffer solution (pH 7.4) containing 142 mM NaCl and 6.7 mM KCL via gravity drip at 20 mL/min., then with 100 mL of magnesium-free Hank's Balanced Salt Solution containing 5 mM CaCl2 and 0.05% collagenase according to Seglen, Exp. Cell. Res. 82: 391-398 (1973). All other details were as described previously (Wu et al., Biochem. Cell Biol. 68, 1189-1194, 1990).
Free radical studies were done by removing the cell medium and adding to the cells 3 mL of 0.05M sodium phosphate-buffered saline (PBS) (pH 7.4) containing 66.7 IU/L of xanthine oxidase (XOD) and 2 mM hypoxanthine, the latter two being used to generate oxyradicals. The base for comparing the effect of different levels of purpurogallin was the time taken to cause necrosis in 95% of 10^5 cells of the same generation in each culture dish. […]
The results are shown graphically in FIG. 2. […] The data are expressed as means±SD (standard deviation). […]

rat livers = experiment: partial hepatic ischemia-reperfusion in vivo; set-up: species or system Sprague-Dawley rats; conditions: for Mean Necrosis (% by weight): infused via penile vein, 24 h reperfusion, saline control 30.3, n=6
Description: In vivo studies were conducted on rat livers, to determine the effectiveness of purpurogallin as a cytoprotectant in partial hepatic ischemia-reperfusion.
There was used the same model as described in Wu et al. Hepatology 13: 575-580, (1991). In essence, the model involves the occlusion of blood vessels supplying to the left lateral, median, and Spigelian lobes of the rate liver by clamping the left portal vein, left hepatic artery and left bile duct. The right portal vein, hepatic artery and bile duct were left intact as an interal shunt. The occlusion was done in Sprague-Dawley rats (0.3-0.4 kg) which had fasted overnight. Approximately […] before the end of ischemia, either 3 mL of saline (control) or saline containing purpurogallin or Trolox (at the levels specified below) was infused into the animals via the penile vein over a 3 minute period. This was followed by reperfusion for 24 hours. Then, the extent of necrosis (based on wet weight of the liver) was quantified by a well established histochemical method (Frederiks et al., Exptl. Mol. Path 41: 119-125, 1984).

| IC50 (human erythrocytes) | Structure (SMILES) | Mean Survival Time of 10^5 Rat Hepatocytes After Exposure to Oxyradical (rat hepatocytes [1]; 0.5 mM) | Mean Survival Time of 10^5 Rat Hepatocytes After Exposure to Oxyradical (rat hepatocytes [1]; 1.0 mM) | Mean Survival Time of 10^5 Rat Hepatocytes After Exposure to Oxyradical (rat hepatocytes [1]; 2.0 mM) | Mean Time Survival of Cells Exposed to XOD and Hypoxanthine ([2]; 0.13 mM) | Mean Time Survival of Cells Exposed to XOD and Hypoxanthine ([2]; 0.25 mM) | Mean Time Survival of Cells Exposed to XOD and Hypoxanthine ([2]; 0.50 mM) | Mean Time Survival of Cells Exposed to XOD and Hypoxanthine ([2]; 1.00 mM) | Mean survival time of human ventricular myocytes after exposure to oxyradical ([3]; 0.5 mM) | Mean survival time of human ventricular myocytes after exposure to oxyradical ([3]; 1.0 mM) | Mean survival time of human ventricular myocytes after exposure to oxyradical ([3]; 1.5 mM) | Mean survival time of human ventricular myocytes after exposure to oxyradical ([3]; 3.0 mM) | further results |
| --- | --- | --- | --- | --- | --- | --- | --- | --- | --- | --- | --- | --- | --- |
| ~740 µM | Cc1c(C)c2c(c(C)c1O)CCC(C)(C(=O)O)O2 (centres unmarked) [Trolox, 6-hydroxy-2,5,7,8-tetramethylchroman-2-carboxylic acid, reference compound] | 12 min | 13 min | 16 min | 6.4 min | 6.6 min | 7.4 min | 7.8 min | 3.5 min | 4.5 min | 4.8 min | 5.3 min | – |
| 120 µM | O=c1c(O)cccc2cc(O)c(O)c(O)c12 [Purpurogallin, 2,3,4,6-tetrahydroxy-5H-benzocyclohepten5-one] | 18 min | 20 min | 31 min | 11.5 min | 13.4 min | 16.0 min | 19.4 min | 14 min | > 60 min | > 60 min | > 60 min | protection of rat hepatocytes compared with Trolox (rat hepatocytes [1]; at equivalent concentrations): clearly more protective of rat hepatocytes than Trolox; protection of kidney cells compared with Trolox ([2]; over all the levels examined): protects the kidney cells substantially better than Trolox; effectiveness versus Trolox in protecting cells from lysis (from IC50) (human erythrocytes; versus Trolox): six; water solubility (water solubility): partly water-soluble; Mean % (± SD) organ necrosis in area at risk (heart; 8.6-10 μmoles/kg body weight (30-ml bolus of 1 mM), right external jugular vein, 3-hour reperfusion, saline control 46.6 ± 10, p <0.001): 11.8 ± 6.2%; Mean & organ salvage (heart; 8.6-10 μmoles/kg body weight, p <0.001 vs control): 75%; time taken to necrose 100,000 hepatocytes (rat hepatocytes [4]): up to 30 min; Mean Necrosis (% by weight) (rat livers; 4.4 μmoles/kg body weight, SD 4.6): 17.7 % by weight; % Salvage of Liver (rat livers; 4.4 μmoles/kg body weight, p value vs control <0.05): 42%; Mean Necrosis (% by weight) (rat livers; 8.8 μmoles/kg body weight, SD 4.9): 7.3 % by weight; % Salvage of Liver (rat livers; 8.8 μmoles/kg body weight, p value vs control 0.005): 76%; Mean Necrosis (% by weight) (rat livers; 18 μmoles/kg body weight, SD 1.1): 4.4 % by weight; % Salvage of Liver (rat livers; 18 μmoles/kg body weight, p value vs control 0.001): 86%; protection of myocytes compared with Trolox ([3]; especially at levels greater than 0.5 mM): at least an order of magnitude more protective of myocytes than Trolox |
